Experimental data as given in the NIST ThermoML archive (doi:10.1016/j.fluid.2016.08.036).

Assay: mn = molality of the nth substance listed, in mol/kg
Conditions: 87 kPa, Liquid, Vibrating tube method

CCn1cc[n+](C)c1.O=S(=O)([O-])O [1-ethyl-3-methylimidazolium hydrogen sulfate] + O
mass density [kg/m3]
Conditions	m1 = 0.0363	m1 = 0.0687	m1 = 0.1026	m1 = 0.1384	m1 = 0.1716	m1 = 0.2049	m1 = 0.2391	m1 = 0.2718	m1 = 0.3034	m1 = 0.3375
293.15 K	1000.86	1003.08	1005.3	1007.57	1009.63	1011.67	1013.72	1015.68	1017.53	1019.54
298.15 K	999.65	1001.82	1003.99	1006.22	1008.23	1010.23	1012.24	1014.17	1016	1017.98
303.15 K	998.2	1000.33	1002.46	1004.64	1006.63	1008.6	1010.58	1012.47	1014.26	1016.21
308.15 K	996.54	998.63	1000.73	1002.87	1004.82	1006.76	1008.7	1010.58	1012.34	1014.25
313.15 K	994.68	996.73	998.8	1000.91	1002.83	1004.74	1006.66	1008.5	1010.24	1012.13
